In PubChem BioAssay AID504896 (The Scripps Research Institute Molecular Screening Center, 2011):

Molecular target: cAMP-dependent protein kinase type I-alpha regulatory subunit (Bos taurus) + cAMP-dependent protein kinase catalytic subunit beta (Mus musculus) (UniProt P00514+P68181)
Test: activation of PKA-R1A holoenzyme dissociation, dose response, counter-screen for PKA-R2B activator project, biochemical, Cy5-IP20 fluorescence polarization, 1536-well, triplicate (AID 504896)

SMILES	EC50 [µM]
Nc1ncnc2c1nc(Sc1ccc(Cl)cc1)n2[C@@H]1O[C@@H]2COP(=O)(O)O[C@H]2[C@H]1O	0.0327
CCCC(=O)Nc1ncnc2c1ncn2[C@@H]1O[C@@H]2OP(=O)(O)OC[C@H]2[C@H]1OC(=O)CCC	6.7
Nc1ncnc2c1nc(Br)n2[C@@H]1O[C@@H]2COP(=O)(O)O[C@H]2[C@H]1O	0.0344

The remaining lines, values ahead:

EC50 [µM]	SMILES
2.68	CCOP1(=O)OCC2OC(n3cnc4c(N)ncnc43)C(O)C2O1 (stereo not given)
7.83	Nc1nc2c(nc(Br)n2[C@@H]2O[C@@H]3COP(=O)(O)O[C@H]3[C@H]2O)c(=O)[nH]1
